How the values were obtained:
[1] = target: T1, c-KIT (Homo sapiens, UniProt P10721); experiment: Inhibition of c-KIT, radiometric filter-binding assay; format: biochemical; details: 700 μM ATP, 0.5 mg/mL pE4Y, room temperature
T1 construct: 0.02% BSA and 25 nM c-KIT
How it was run: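 Radiometric filter-binding: 25 nM c-KIT (enzyme in the Solution 2 mix) with poly(Glu,Tyr) 4:1 substrate at 0.5 mg/mL and [γ-^33P]ATP at 700 μM (both final), in HEPES pH 7.5/MgCl2/NaCl/DTT/BSA with 2.5% DMSO. Incubated 20 min at room temperature, stopped with TCA, and ^33P incorporation counted on filters. 12-point titration, final compound typically 0.01-5 μM; IC50 or Ki from curve fit.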

[2] = target: T2, JAK3 (Homo sapiens, UniProt P52333); experiment: JAK3 inhibition assay (ELISA, Poly (Glu, Ala, Tyr) coated plates); format: biochemical; details: 2 mM ATP, 60 minutes at 30° C.
T2 sequence (P52333 1-1124): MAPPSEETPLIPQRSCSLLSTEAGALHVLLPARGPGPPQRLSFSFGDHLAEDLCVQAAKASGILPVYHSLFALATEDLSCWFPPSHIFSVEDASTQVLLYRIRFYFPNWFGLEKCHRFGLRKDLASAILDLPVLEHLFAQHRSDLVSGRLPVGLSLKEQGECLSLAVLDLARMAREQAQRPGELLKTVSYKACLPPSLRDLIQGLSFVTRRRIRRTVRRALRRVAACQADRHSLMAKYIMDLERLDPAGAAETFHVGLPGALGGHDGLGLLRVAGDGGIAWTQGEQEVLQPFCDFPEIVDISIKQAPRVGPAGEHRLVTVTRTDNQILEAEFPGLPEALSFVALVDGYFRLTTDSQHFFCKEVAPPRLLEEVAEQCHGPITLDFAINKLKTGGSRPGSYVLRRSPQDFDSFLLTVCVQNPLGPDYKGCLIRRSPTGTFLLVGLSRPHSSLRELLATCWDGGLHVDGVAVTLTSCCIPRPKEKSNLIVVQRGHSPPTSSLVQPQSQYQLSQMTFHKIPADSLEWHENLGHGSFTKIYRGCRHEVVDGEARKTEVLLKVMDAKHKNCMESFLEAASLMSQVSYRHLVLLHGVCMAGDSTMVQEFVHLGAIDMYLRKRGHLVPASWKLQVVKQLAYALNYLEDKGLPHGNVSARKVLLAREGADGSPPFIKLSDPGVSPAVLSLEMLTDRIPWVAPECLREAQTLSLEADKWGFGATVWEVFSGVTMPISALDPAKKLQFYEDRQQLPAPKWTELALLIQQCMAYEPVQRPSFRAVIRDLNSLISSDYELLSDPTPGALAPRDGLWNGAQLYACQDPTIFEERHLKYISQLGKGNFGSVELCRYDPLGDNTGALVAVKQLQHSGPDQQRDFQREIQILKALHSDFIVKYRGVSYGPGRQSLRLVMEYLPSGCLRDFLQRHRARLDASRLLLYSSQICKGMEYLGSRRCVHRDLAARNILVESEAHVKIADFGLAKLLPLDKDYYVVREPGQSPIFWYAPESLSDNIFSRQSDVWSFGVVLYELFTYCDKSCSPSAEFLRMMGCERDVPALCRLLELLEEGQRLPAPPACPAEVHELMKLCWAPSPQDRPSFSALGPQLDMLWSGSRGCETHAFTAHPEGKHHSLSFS
How it was run: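 ELISA on Poly(Glu,Ala,Tyr) 6:3:1-coated plates with 2 mM ATP and 5 mM MgCl2. JAK enzyme started the reaction, run 60 min at 30° C. Phosphotyrosine was detected with HRP-conjugated 4G10 antibody and TMB, read at 450 nm, and IC50 was derived from optical densities.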

T1 sequence (P10721 26-976): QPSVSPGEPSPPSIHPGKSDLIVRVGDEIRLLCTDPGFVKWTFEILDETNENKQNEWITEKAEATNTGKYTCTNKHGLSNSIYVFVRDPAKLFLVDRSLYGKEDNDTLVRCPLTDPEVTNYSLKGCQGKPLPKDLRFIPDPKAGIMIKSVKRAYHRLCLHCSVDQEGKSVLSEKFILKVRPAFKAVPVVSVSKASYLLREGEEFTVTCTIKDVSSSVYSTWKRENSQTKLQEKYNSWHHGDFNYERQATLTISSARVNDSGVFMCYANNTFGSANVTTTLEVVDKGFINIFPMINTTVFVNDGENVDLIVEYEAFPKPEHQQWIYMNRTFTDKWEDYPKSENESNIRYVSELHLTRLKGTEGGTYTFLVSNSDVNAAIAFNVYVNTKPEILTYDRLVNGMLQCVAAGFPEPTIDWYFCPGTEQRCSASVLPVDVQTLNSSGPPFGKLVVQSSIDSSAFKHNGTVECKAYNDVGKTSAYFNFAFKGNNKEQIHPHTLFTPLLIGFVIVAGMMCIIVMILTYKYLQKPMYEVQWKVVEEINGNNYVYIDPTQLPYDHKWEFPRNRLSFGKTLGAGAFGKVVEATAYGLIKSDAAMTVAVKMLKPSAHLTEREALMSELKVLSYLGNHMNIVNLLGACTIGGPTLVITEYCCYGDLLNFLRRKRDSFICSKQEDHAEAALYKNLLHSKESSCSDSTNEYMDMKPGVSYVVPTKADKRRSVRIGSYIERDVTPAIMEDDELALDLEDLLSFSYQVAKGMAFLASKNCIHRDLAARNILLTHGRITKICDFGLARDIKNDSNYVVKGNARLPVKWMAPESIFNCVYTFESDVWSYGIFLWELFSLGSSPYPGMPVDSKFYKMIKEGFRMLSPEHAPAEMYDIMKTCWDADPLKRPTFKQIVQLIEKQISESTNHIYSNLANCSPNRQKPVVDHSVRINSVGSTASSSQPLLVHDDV

| SMILES | Ki [1] | Ki [2] |
| --- | --- | --- |
| Nc1ccc(-c2cnc3[nH]cc(-c4oncc4-c4cccc(F)c4F)c3c2)cc1 [Compound 90, 4-{3-[4-(2,3-Difluoro-phenyl)-isoxazol-5-yl]-1H-pyrrolo [2,3-b]pyridin-5-yl}-phenylamine] | < 200 nM | < 200 nM |
| Fc1cccc(-c2cnoc2-c2c[nH]c3ncc(-c4cncnc4)cc23)c1F [Compound 85, 3-[4-(2,3-Difluoro-phenyl)-isoxazol-5-yl]-5-pyrimidin-5-yl-1H-pyrrolo[2,3-b]pyridine] | < 200 nM | 200 to 1000 nM |
| COc1cnc2[nH]cc(-c3oncc3-c3cccc(F)c3F)c2c1 [Compound 38, 3-[4-(2,3-Difluoro-phenyl)-isoxazol-5-yl]-5-methoxy-1H-pyrrolo[2,3-b]pyridine] | < 200 nM | < 200 nM |
| Fc1cccc(-n2cnnc2-c2c[nH]c3ncc(-c4ccc(N5CCCC5)nc4)cc23)c1F [Compound 118, 3-[4-(2,3-Difluoro-phenyl)-4H-[1,2,4]triazol-3-yl]-5-(6-pyrrolidin-1-yl-pyridin-3-yl)-1H-pyrrolo[2,3-b]pyridine] | 200 to 1000 nM | 200 to 1000 nM |
| Fc1cccc(-c2cnoc2-c2c[nH]c3ncc(-c4ccc(CN5CCCC5)cc4)cc23)c1F [Compound 93, 3-[4-(2,3-Difluoro-phenyl)-isoxazol-5-yl]-5-(4-pyrrolidin-1-ylmethyl-phenyl)-1H-pyrrolo[2,3-b]pyridine] | < 200 nM | < 200 nM |
| Nc1ccnc(-c2cnc3[nH]cc(-c4oncc4-c4cccc(F)c4F)c3c2)c1 [Compound 83, 2-{3-[4-(2,3-Difluoro-phenyl)-isoxazol-5-yl]-1H-pyrrolo [2,3-b]pyridin-5-yl}-pyridin-4-ylamine] | < 200 nM | < 200 nM |
| Oc1cccc(-c2cnc3[nH]cc(-c4oncc4-c4cccc(F)c4F)c3c2)c1 [Compound 87, 3-{3-[4-(2,3-Difluoro-phenyl)-isoxazol-5-yl]-1H-pyrrolo [2,3-b]pyridin-5-yl}-phenol] | < 200 nM | < 200 nM |
| Fc1cccc(-c2cnoc2-c2c[nH]c3ncc(-c4ccncc4)cc23)c1F [Compound 57, 3-[4-(2,3-Difluoro-phenyl)-isoxazol-5-yl]-5-pyridin-4-yl-1H-pyrrolo[2,3-b]pyridine] | < 200 nM | < 200 nM |
| CC(=O)Nc1cccc(-c2cnc3[nH]cc(-c4oncc4-c4cccc(F)c4F)c3c2)c1 [Compound 65, N-(3-{3-[4-(2,3-Difluoro-phenyl)-isoxazol-5-yl]-1H-pyrrolo[2,3-b]pyridin-5-yl}-phenyl)-acetamide] | < 200 nM | < 200 nM |
| COC(=O)c1cnc2[nH]cc(-c3oncc3-c3cccc(F)c3F)c2c1 [Compound 105, 3-[4-(2,3-Difluoro-phenyl)-isoxazol-5-yl]-1H-pyrrolo[2,3-b]pyridine-5-carboxylic acid methyl ester] | < 200 nM | < 200 nM |
| Cn1ccc2c(-c3oncc3-c3cccc(F)c3F)c[nH]c2c1=O [Compound 144, 3-[4-(2,3-Difluoro-phenyl)-isoxazol-5-yl]-6-methyl-1,6-dihydro-pyrrolo[2,3-c]pyridin-7-one] | 200 to 1000 nM | 1000 to 12500 nM |
| Fc1ccc(-c2cnc3[nH]cc(-c4oncc4-c4cccc(F)c4F)c3c2)cn1 [Compound 69, 3-[4-(2,3-Difluoro-phenyl)-isoxazol-5-yl]-5-(6-fluoro-pyridin-3-yl)-1H-pyrrolo[2,3-b]pyridine] | < 200 nM | 200 to 1000 nM |
| Fc1cccc(-n2cnnc2-c2c[nH]c3ncc(-c4cccnc4)cc23)c1F [Compound 113, 3-[4-(2,3-Difluoro-phenyl)-4H-[1,2,4]triazol-3-yl]-5-pyridin-3-yl-1H-pyrrolo[2,3-b]pyridine] | 200 to 1000 nM | 1000 to 12500 nM |
| Fc1cccc(-n2cnnc2-c2c[nH]c3ncc(-c4ccc(N5CCC[C@H]5CN5CCCC5)nc4)cc23)c1F [Compound 115, 3-[4-(2,3-Difluoro-phenyl)-4H-[1,2,4]triazol-3-yl]-5-[6-(2-pyrrolidin-1-ylmethyl-pyrrolidin-1-yl)-pyridin-3-yl]-1H-pyrrolo[2,3-b]pyridine] | 200 to 1000 nM | 1000 to 12500 nM |
| CN1CCN(c2ccc(-c3cnc4[nH]cc(-c5oncc5-c5cccc(F)c5F)c4c3)cc2)CC1 [Compound 70, 3-[4-(2,3-Difluoro-phenyl)-isoxazol-5-yl]-5-[4-(4-methyl-piperazin-1-yl)-phenyl]-1H-pyrrolo[2,3-b]pyridine methanesulfonate] | < 200 nM | < 200 nM |
| Fc1cccc(-c2cnoc2-c2c[nH]c3ncc(C4=CCC(N5CCOCC5)CC4)cc23)c1F (stereo not shown) [Compound 139, 3-[4-(2,3-Difluoro-phenyl)-isoxazol-5-yl]-5-(4-morpholin-4-yl-cyclohex-1-enyl)-1H-pyrrolo[2,3-b]pyridine] | < 200 nM | < 200 nM |
| COc1cnc2[nH]cc(-c3oncc3-c3cccc(Cl)c3Cl)c2c1 [Compound 49, 3-[4-(2,3-Dichloro-phenyl)-isoxazol-5-yl]-5-methoxy-1H-pyrrolo[2,3-b]pyridine] | < 200 nM | < 200 nM |
| CN(C)CCNc1ccc(-c2cnc3[nH]cc(-c4nncn4-c4cccc(F)c4F)c3c2)cn1 [Compound 119, N′-(5-{3-[4-(2,3-Difluoro-phenyl)-4H-[1,2,4]triazol-3-yl]-1H-pyrrolo[2,3-b]pyridin-5-yl}-pyridin-2-yl)-N,N-dimethyl-ethane-1,2-diamine] | 200 to 1000 nM | 1000 to 12500 nM |
| Fc1cccc(-c2cnoc2-c2c[nH]c3ncc(-c4ccc(N5CCNCC5)cc4)cc23)c1F [Compound 68, 3-[4-(2,3-Difluoro-phenyl)-isoxazol-5-yl]-5-(4-piperazin-1-yl-phenyl)-1H-pyrrolo[2,3-b]pyridine] | < 200 nM | < 200 nM |
| Fc1cccc(-c2cnoc2-c2c[nH]c3ncc(C4=CCC(NCc5ccccc5)CC4)cc23)c1F (stereo not shown) [Compound 136, Benzyl-(4-{3-[4-(2,3-difluoro-phenyl)-isoxazol-5-yl]-1H-pyrrolo[2,3-b]pyridin-5-yl}-cyclohex-3-enyl)-amine] | < 200 nM | < 200 nM |
| CN(C)C1CC=C(c2cnc3[nH]cc(-c4oncc4-c4cccc(F)c4F)c3c2)CC1 (stereo not shown) [Compound 138, (4-{3-[4-(2,3-Difluoro-phenyl)-isoxazol-5-yl]-1H-pyrrolo[2,3-b]pyridin-5-yl}-cyclohex-3-enyl)-dimethyl-amine] | < 200 nM | < 200 nM |
| Fc1cccc(-c2cnoc2-c2c[nH]c3ncc(-c4ccccn4)cc23)c1F [Compound 73, 3-(4-(2,3-Difluoro-phenyl)-isoxazol-5-yl)-5-pyridin-2-yl-1H-pyrrolo[2,3-b]pyridine] | < 200 nM | < 200 nM |
| CN1CCN(c2ccc(-c3cnc4[nH]cc(-c5oncc5-c5cccc(F)c5F)c4c3)cn2)CC1 [Compound 71, 3-[4-(2,3-Difluoro-phenyl)-isoxazol-5-yl]-5-[6-(4-methyl-piperazin-1-yl)-pyridin-3-yl]-1H-pyrrolo[2,3-b]pyridine] | < 200 nM | < 200 nM |
| CN1CCN(c2ccc(-c3cnc4[nH]cc(-c5nncn5-c5cccc(F)c5F)c4c3)cn2)CC1 [Compound 112] | 200 to 1000 nM | 1000 to 12500 nM |
| CN(C)c1ccc(-c2cnc3[nH]cc(-c4nncn4-c4cccc(F)c4F)c3c2)cc1 [Compound 106, (4-{3-[4-(2,3-Difluoro-phenyl)-4H-[1,2,4]triazol-3-yl]-1H-pyrrolo[2,3-b]pyridin-5-yl}-phenyl)-dimethyl-amine] | < 200 nM | 200 to 1000 nM |
| O=c1ccc(-c2cnc3[nH]cc(-c4oncc4-c4cccc(F)c4F)c3c2)c[nH]1 [Compound 67, 5-{3-[4-(2,3-Difluoro-phenyl)-isoxazol-5-yl]-1H-pyrrolo [2,3-b]pyridin-5-yl}-1H-pyridin-2-one] | < 200 nM | < 200 nM |

From patent US7446199B2, “Compositions useful as inhibitors of protein kinases” (Vertex Pharmaceuticals Incorporated, priority 2003, dated 2008)
